Patent US6420110B1, “Methods and reagents for isolating biologically active peptides” (GPC Biotech, Inc., priority 1998, dated 2002)

System: bovine capillary endothelial (BCE) cells
Assay: Inhibition of bFGF stimulated BCE cell proliferation in Transwells (CyQUANT)
Type: cell-based
Conditions: 1 ng/ml bFGF, 72 hrs
Protocol: COS-7 cells were transfected with pAM9-myc, pAM9-RGD and pAM9-K1 plasmids, respectively, that direct the expression and secretion of the Myc epitope-6xHis, the RGD and the angiostatin first kringle domain peptides. The transfected COS-7 cells were co-incubated in Transwells with BCE cells whose proliferation was stimulated by 1 ng/ml bFGF. As controls, untransfected COS-7 cells and bFGF stimulated BCE cells were similarly co-incubated and synthetic Myc-6xHis and RGD peptides as well as purified K1 were added to the media at the indicated concentrations. The proliferation of the bFGF stimulated BCE cells were measured 72 hrs later using the fluorescent CyQUANT proliferation kit (Molecular Probes).

Sequence: CDCRGDCFC [RGD peptide, positive control]
- inhibition of bFGF stimulated BCE cell proliferation (peptide secreted from transfected COS-7 cells co-incubated in Transwells): inhibited
- inhibition of bFGF stimulated BCE cell proliferation (synthetic or purified peptide added to the media, untransfected COS-7 cells co-incubated): inhibited
